# According to ChEMBL document CHEMBL4304811, “Development of a Water-Soluble Indolylmaleimide Derivative IM-93 Showing Dual Inhibition of Ferroptosis and NETosis” (ACS Med Chem Lett, 2019):
# How the values were obtained:
# [1] = target: Bone morphogenetic protein receptor type-2 (Homo sapiens) (UniProt Q13873); assay: Binding affinity to wild-type human partial length BMPR2 (R179 to Q526 residues) expressed in mammalian expression system assessed as residual binding level at 10 uM by Kinomescan method relative to control
# [2] = target: Protein-tyrosine kinase 2-beta (Homo sapiens) (UniProt Q14289); assay: Binding affinity to wild-type human full length PYK2 (M1 to E967 residues) expressed in bacterial expression system assessed as residual binding level at 10 uM by Kinomescan method relative to control
# Protein-tyrosine kinase 2-beta (Homo sapiens), sequence (Q14289 whole entry, looked up, the tested form may be a part): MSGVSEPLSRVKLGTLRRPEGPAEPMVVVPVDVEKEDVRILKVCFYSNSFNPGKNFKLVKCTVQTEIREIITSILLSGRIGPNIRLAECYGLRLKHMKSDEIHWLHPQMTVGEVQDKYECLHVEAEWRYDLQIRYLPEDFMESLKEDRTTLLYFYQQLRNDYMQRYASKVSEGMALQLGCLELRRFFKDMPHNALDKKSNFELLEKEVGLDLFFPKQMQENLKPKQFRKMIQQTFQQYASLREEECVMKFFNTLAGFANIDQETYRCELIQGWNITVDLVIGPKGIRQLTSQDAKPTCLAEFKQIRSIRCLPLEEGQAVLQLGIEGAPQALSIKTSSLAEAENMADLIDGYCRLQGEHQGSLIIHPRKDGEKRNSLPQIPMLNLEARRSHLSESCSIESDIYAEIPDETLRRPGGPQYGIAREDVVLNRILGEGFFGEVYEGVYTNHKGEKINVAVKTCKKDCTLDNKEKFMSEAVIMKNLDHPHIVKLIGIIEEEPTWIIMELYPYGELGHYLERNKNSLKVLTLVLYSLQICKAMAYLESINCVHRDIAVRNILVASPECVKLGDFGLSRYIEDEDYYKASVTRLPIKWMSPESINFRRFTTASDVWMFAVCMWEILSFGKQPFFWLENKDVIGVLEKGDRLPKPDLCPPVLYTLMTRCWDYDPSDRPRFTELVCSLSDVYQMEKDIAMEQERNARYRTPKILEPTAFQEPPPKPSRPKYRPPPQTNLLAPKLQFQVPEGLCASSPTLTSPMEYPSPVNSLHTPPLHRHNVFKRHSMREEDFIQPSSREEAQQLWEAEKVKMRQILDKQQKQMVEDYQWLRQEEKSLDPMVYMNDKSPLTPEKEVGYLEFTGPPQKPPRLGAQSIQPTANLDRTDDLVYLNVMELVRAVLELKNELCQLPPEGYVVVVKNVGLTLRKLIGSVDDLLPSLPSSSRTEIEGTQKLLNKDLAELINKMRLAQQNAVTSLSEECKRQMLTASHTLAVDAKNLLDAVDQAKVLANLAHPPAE
# [3] = target: BMP-2-inducible protein kinase (Homo sapiens) (UniProt Q9NSY1); assay: Binding affinity to wild-type human partial length BIKE (S34 to N329 residues) expressed in bacterial expression system assessed as residual binding level at 10 uM by Kinomescan method relative to control
# BMP-2-inducible protein kinase (Homo sapiens), sequence (Q9NSY1 whole entry, looked up, the tested form may be a part): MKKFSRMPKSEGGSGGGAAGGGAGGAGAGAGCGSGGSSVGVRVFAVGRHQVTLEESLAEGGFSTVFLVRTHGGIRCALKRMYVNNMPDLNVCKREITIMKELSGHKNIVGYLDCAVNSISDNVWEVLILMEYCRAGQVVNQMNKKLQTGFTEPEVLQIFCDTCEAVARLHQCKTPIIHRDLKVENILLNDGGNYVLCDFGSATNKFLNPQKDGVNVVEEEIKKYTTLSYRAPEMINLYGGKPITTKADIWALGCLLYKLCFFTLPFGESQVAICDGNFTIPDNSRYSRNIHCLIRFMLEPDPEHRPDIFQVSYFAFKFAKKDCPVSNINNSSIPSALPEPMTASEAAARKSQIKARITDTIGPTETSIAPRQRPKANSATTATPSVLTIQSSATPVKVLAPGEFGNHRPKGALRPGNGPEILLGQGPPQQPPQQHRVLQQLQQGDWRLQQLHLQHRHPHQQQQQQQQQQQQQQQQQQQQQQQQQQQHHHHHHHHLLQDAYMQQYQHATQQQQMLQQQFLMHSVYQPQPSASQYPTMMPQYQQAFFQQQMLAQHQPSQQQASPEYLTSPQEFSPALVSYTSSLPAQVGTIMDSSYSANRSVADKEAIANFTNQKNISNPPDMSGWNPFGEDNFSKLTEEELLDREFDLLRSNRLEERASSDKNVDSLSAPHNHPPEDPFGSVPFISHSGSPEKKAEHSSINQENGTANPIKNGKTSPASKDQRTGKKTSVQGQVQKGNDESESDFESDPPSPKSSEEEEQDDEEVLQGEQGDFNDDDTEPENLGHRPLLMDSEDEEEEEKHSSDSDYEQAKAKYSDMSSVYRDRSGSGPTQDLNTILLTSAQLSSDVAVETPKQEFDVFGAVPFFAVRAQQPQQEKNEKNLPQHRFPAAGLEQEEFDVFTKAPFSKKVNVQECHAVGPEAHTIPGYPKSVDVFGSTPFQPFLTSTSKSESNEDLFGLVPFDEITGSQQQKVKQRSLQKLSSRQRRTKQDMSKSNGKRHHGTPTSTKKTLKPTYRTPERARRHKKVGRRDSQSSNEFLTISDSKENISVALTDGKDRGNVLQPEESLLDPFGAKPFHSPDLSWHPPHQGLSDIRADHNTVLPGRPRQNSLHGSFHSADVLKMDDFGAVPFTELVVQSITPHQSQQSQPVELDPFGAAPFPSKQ
# [4] = target: Protein kinase C delta type (Homo sapiens) (UniProt Q05655); assay: Binding affinity to wild-type human partial length PRKCD (Q328 to D676 residues) expressed in bacterial expression system assessed as residual binding level at 10 uM by Kinomescan method relative to control
# Protein kinase C delta type (Homo sapiens), sequence (Q05655 whole entry, looked up, the tested form may be a part): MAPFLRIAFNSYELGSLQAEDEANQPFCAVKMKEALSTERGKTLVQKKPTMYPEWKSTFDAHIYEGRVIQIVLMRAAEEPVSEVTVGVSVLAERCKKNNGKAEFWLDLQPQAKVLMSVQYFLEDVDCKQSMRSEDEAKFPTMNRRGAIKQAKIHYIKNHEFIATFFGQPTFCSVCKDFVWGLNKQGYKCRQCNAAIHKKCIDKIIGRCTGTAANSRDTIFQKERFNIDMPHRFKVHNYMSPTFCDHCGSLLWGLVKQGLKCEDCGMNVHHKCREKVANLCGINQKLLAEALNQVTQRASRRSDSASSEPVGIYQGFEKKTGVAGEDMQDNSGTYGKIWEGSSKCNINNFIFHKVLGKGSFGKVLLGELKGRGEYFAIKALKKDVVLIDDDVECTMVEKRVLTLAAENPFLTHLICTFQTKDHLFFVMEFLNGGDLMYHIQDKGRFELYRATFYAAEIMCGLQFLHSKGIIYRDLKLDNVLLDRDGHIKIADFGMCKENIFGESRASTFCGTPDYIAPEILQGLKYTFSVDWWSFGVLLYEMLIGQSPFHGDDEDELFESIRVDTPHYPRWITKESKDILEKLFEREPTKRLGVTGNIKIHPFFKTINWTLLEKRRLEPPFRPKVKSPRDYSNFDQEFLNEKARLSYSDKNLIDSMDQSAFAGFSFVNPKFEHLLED
# [5] = tested on: Tyrosine-protein kinase ABL1 (Homo sapiens), P00519 [T315I]; assay: Binding affinity to human non-phosphorylated ABL1 T315I mutant (S229 to K512 residues) expressed in mammalian expression system assessed as residual binding level at 10 uM by Kinomescan method relative to control
# [6] = target: Transient receptor potential cation channel subfamily M member 6 (Homo sapiens) (UniProt Q9BX84); assay: Binding affinity to wild-type human partial length TRPM6 (Q1723 to I1998 residues) expressed in mammalian expression system assessed as residual binding level at 10 uM by Kinomescan method relative to control
# [7] = target: Mitogen-activated protein kinase kinase kinase 2 (Homo sapiens) (UniProt Q9Y2U5); assay: Binding affinity to wild-type human partial length MAP3K2 (S315 to H619 residues) expressed in mammalian expression system assessed as residual binding level at 10 uM by Kinomescan method relative to control
# Mitogen-activated protein kinase kinase kinase 2 (Homo sapiens), sequence (Q9Y2U5 whole entry, the tested form may be a part): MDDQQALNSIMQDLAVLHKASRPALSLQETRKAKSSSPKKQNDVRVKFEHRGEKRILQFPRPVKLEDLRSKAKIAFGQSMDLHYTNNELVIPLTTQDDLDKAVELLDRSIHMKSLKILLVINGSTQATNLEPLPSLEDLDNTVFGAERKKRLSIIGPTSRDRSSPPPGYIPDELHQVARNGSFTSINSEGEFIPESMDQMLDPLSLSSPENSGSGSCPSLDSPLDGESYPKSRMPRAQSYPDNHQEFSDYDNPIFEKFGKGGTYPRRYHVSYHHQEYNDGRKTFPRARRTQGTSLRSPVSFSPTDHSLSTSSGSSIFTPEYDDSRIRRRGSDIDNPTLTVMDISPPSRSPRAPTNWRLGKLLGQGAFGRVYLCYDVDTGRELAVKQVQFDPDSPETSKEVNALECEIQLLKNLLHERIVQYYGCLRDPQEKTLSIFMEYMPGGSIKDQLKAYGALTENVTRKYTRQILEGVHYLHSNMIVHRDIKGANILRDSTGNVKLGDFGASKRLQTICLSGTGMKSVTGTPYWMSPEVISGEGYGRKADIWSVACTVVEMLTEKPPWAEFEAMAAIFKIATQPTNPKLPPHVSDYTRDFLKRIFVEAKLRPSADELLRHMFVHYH
# [8] = tested on: Epidermal growth factor receptor (Homo sapiens), P00533 [UNDEFINED MUTATION]; assay: Binding affinity to human partial length EGFR L747-T751del/Sins mutant expressed in bacterial expression system assessed as residual binding level at 10 uM by Kinomescan method relative to control
# [9] = target: MAP kinase-activated protein kinase 2 (Homo sapiens) (UniProt P49137); assay: Binding affinity to wild-type human partial length MAPKAPK2 (V48 to D345 residues) expressed in bacterial expression system assessed as residual binding level at 10 uM by Kinomescan method relative to control
# [10] = target: G protein-coupled receptor kinase 4 (Homo sapiens) (UniProt P32298); assay: Binding affinity to wild-type human full length GRK4 (M1 to C578 residues) expressed in bacterial expression system assessed as residual binding level at 10 uM by Kinomescan method relative to control
# [11] = target: Inhibitor of nuclear factor kappa-B kinase subunit epsilon (Homo sapiens) (UniProt Q14164); assay: Binding affinity to wild-type human full length IKK-epsilon (M1 to V716 residues) expressed in mammalian expression system assessed as residual binding level at 10 uM by Kinomescan method relative to control
# Inhibitor of nuclear factor kappa-B kinase subunit epsilon (Homo sapiens), sequence (Q14164 whole entry, the tested form may be a part): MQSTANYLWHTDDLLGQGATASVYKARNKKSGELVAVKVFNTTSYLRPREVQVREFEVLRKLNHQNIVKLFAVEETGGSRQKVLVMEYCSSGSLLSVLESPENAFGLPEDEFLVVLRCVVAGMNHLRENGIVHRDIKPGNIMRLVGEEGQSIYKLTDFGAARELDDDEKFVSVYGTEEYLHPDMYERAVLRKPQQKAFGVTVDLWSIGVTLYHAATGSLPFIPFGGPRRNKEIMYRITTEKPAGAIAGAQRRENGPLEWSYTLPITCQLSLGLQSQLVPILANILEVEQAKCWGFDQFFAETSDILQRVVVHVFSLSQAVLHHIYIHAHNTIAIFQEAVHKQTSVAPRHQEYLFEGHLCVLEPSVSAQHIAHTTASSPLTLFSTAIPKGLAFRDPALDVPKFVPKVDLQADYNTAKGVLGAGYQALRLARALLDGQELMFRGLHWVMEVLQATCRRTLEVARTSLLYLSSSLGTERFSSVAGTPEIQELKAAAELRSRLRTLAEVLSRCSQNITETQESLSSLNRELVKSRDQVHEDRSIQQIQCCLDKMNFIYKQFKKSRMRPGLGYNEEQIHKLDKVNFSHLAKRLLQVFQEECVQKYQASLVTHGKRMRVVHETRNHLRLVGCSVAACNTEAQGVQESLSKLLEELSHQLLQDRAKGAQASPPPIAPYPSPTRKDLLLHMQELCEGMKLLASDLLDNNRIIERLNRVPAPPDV
# [12] = target: Serine/threonine-protein kinase 26 (Homo sapiens) (UniProt Q9P289); assay: Binding affinity to wild-type human full length MST4 (M1 to P416 residues) expressed in mammalian expression system assessed as residual binding level at 10 uM by Kinomescan method relative to control
# Serine/threonine-protein kinase 26 (Homo sapiens), sequence (Q9P289 2-416 limits assumed): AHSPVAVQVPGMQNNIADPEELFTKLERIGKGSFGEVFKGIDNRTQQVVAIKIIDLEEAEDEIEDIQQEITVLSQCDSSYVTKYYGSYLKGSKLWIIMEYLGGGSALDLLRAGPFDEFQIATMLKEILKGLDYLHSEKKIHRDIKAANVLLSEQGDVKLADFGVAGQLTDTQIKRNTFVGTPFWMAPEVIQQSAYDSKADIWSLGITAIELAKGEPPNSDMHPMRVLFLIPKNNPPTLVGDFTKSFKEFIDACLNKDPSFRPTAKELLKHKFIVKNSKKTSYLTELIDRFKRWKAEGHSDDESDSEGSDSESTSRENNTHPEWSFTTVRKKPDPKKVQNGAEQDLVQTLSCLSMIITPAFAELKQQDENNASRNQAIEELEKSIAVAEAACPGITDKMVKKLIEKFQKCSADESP
# [13] = target: Calcium/calmodulin-dependent protein kinase type II subunit beta (Homo sapiens) (UniProt Q13554); assay: Binding affinity to wild-type human partial length CAMK2B (M1 to Q380 residues) expressed in bacterial expression system assessed as residual binding level at 10 uM by Kinomescan method relative to control
# [14] = target: Rho-associated protein kinase 1 (Homo sapiens) (UniProt Q13464); assay: Binding affinity to wild-type human partial length ROCK1 (M1 to R415 residues) expressed in mammalian expression system assessed as residual binding level at 10 uM by Kinomescan method relative to control
# [15] = target: Casein kinase I isoform gamma-1 (Homo sapiens) (UniProt Q9HCP0); assay: Binding affinity to wild-type human partial length CSNK1G1 (T15 to S353 residues) expressed in bacterial expression system assessed as residual binding level at 10 uM by Kinomescan method relative to control
# [16] = target: Protein kinase C eta type (Homo sapiens) (UniProt P24723); assay: Binding affinity to wild-type human partial length PRKCH (S324 to P683 residues) expressed in bacterial expression system assessed as residual binding level at 10 uM by Kinomescan method relative to control
# [17] = target: Non-receptor tyrosine-protein kinase TYK2 (Homo sapiens) (UniProt P29597); assay: Binding affinity to wild-type human partial length TYK2 JH2 pseudokinase domain (G556 to D888 residues) expressed in mammalian expression system assessed as residual binding level at 10 uM by Kinomescan method relative to control
# [18] = target: Dual specificity mitogen-activated protein kinase kinase 5 (Homo sapiens) (UniProt Q13163); assay: Binding affinity to wild-type human partial length MEK5 (L98 to P448 residues) expressed in mammalian expression system assessed as residual binding level at 10 uM by Kinomescan method relative to control
# Dual specificity mitogen-activated protein kinase kinase 5 (Homo sapiens), sequence (Q13163 whole entry, the tested form may be a part): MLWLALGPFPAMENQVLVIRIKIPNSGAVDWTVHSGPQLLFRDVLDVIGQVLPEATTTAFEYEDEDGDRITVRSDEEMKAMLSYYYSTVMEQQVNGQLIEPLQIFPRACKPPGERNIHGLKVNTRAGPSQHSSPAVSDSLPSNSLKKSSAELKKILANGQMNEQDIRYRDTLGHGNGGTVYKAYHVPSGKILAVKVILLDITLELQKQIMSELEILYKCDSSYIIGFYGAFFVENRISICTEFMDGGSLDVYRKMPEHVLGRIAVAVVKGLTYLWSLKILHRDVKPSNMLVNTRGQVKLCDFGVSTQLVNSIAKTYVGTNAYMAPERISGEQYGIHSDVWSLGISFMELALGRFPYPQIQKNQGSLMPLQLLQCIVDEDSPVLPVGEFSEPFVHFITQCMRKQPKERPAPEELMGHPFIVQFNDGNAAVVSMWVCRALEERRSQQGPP
# [19] = target: Wee1-like protein kinase 2 (Homo sapiens) (UniProt P0C1S8); assay: Binding affinity to wild-type human partial length WEE2 (M204 to K492 residues) expressed in bacterial expression system assessed as residual binding level at 10 uM by Kinomescan method relative to control
# [20] = target: Serine/threonine-protein kinase SIK3 (Homo sapiens) (UniProt Q9Y2K2); assay: Binding affinity to wild-type human partial length QSK (A90 to L395 residues) expressed in mammalian expression system assessed as residual binding level at 10 uM by Kinomescan method relative to control
# [21] = tested on: Receptor-type tyrosine-protein kinase FLT3 (Homo sapiens), P36888 [N841I]; assay: Binding affinity to human partial length FLT3 N841I mutant (V592 to Y969 residues) expressed in bacterial expression system assessed as residual binding level at 10 uM by Kinomescan method relative to control
# [22] = target: Tyrosine-protein kinase Fer (Homo sapiens) (UniProt P16591); assay: Binding affinity to wild-type human partial length FER (S542 to T822 residues) expressed in bacterial expression system assessed as residual binding level at 10 uM by Kinomescan method relative to control
# [23] = tested on: Phosphatidylinositol 4,5-bisphosphate 3-kinase catalytic subunit alpha isoform (Homo sapiens), P42336 [E545K]; assay: Binding affinity to human partial length PIK3CA E545K mutant (R108 to N1068 residues) expressed in mammalian expression system assessed as residual binding level at 10 uM by Kinomescan method relative to control
# [24] = target: Phosphatidylinositol 4-phosphate 3-kinase C2 domain-containing subunit beta (Homo sapiens) (UniProt O00750); assay: Binding affinity to wild-type human partial length PIK3C2B (M1 to L1634 residues) expressed in mammalian expression system assessed as residual binding level at 10 uM by Kinomescan method relative to control
smiles,measurement,setting,value
CC(C)N1C(=O)C(NCCCN(C)C)=C(c2cn(C)c3ccccc23)C1=O.Cl,Activity,[1],100%
same,Activity,[2],100%
same,Activity,[3],94%
same,Activity,[4],100%
same,Activity,[5],93%
same,Activity,[6],97%
same,Activity,[7],83%
same,Activity,[8],94%
same,Activity,[9],94%
same,Activity,[10],88%
same,Activity,[11],77%
same,Activity,[12],83%
same,Activity,[13],100%
same,Activity,[14],96%
same,Activity,[15],89%
same,Activity,[16],99%
same,Activity,[17],88%
same,Activity,[18],77%
same,Activity,[19],100%
same,Activity,[20],93%
same,Activity,[21],100%
same,Activity,[22],97%
same,Activity,[23],93%
same,Activity,[24],81%
